# Measured values from article PMC9532703, “A novel small molecule RK-019 inhibits FGFR2-amplification gastric cancer cell proliferation and induces apoptosis in vitro and in vivo” (Frontiers in Pharmacology, 2022).
# Key:
# Assay in all cases: Kinase selectivity panel
# Format in all cases: biochemical
# Abl (M351T)(h) = biological target: T1, Abl (M351T)(h) (Homo sapiens, UniProt P00519, M351T); conditions: read-out: Inhibition(%) @ 1 µM RK-019
# T1 construct: purchased Eurofins Discovery Services (KinaseProfiler)
# Procedure, shortened: (§1)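 Selectivity profiling used one concentration (1 µM) in an ATP-site competition binding assay over 422 recombinant human kinases; data given as inhibition ratio.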
# Abl (Q252H) (h) = biological target: T2, Abl (Q252H) (h) (Homo sapiens, UniProt P00519, Q252H); conditions: read-out: Inhibition(%) @ 1 µM RK-019
# T2 construct: purchased Eurofins Discovery Services (KinaseProfiler)
# Procedure, shortened: as §1
# Axl(h) = biological target: T3, Axl(h) (Homo sapiens, UniProt P30530); conditions: read-out: Inhibition(%) @ 1 µM RK-019
# T3 construct: purchased Eurofins Discovery Services (KinaseProfiler)
# T3 sequence (P30530 26-894): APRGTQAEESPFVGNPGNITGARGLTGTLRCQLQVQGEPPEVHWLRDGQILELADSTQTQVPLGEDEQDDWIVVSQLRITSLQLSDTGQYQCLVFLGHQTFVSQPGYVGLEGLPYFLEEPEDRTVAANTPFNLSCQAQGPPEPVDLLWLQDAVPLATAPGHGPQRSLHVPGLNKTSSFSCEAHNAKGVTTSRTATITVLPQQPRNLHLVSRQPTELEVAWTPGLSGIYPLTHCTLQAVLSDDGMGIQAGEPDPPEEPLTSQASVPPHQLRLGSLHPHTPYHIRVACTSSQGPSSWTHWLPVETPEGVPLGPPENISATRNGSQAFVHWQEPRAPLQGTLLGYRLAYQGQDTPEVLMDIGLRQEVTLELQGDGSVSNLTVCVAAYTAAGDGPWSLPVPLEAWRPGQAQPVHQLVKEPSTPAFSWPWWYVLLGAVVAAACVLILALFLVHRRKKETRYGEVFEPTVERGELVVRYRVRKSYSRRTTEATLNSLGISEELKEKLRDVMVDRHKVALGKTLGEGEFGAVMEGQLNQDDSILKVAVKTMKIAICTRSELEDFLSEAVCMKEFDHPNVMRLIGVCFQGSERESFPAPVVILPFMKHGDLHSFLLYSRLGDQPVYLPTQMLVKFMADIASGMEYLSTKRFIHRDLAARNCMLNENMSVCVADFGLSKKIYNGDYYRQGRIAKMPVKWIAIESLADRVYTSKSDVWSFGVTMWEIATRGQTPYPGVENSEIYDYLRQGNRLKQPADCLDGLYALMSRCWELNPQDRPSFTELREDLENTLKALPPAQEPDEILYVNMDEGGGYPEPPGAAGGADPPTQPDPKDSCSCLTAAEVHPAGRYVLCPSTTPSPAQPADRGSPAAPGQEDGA
# Procedure, shortened: as §1
# CDK17/cyclinY(h) = biological target: T4, CDK17/cyclinY(h) (Homo sapiens, UniProt Q00537); conditions: read-out: Inhibition(%) @ 1 µM RK-019
# T4 construct: purchased Eurofins Discovery Services (KinaseProfiler)
# Procedure, shortened: as §1
# CDK4/cyclinD3(h) = biological target: T5, CDK4/cyclinD3(h) (Homo sapiens, UniProt P11802); conditions: read-out: Inhibition(%) @ 1 µM RK-019
# T5 construct: purchased Eurofins Discovery Services (KinaseProfiler)
# Procedure, shortened: as §1
# CHK2(h) = biological target: T6, CHK2(h) (Homo sapiens, UniProt O96017); conditions: read-out: Inhibition(%) @ 1 µM RK-019
# T6 construct: purchased Eurofins Discovery Services (KinaseProfiler)
# Procedure, shortened: as §1
# CLIK1(h) = biological target: T7, CLIK1(h) (Homo sapiens, UniProt Q8TDR2); conditions: read-out: Inhibition(%) @ 1 µM RK-019
# T7 construct: purchased Eurofins Discovery Services (KinaseProfiler)
# T7 sequence (Q8TDR2 whole entry): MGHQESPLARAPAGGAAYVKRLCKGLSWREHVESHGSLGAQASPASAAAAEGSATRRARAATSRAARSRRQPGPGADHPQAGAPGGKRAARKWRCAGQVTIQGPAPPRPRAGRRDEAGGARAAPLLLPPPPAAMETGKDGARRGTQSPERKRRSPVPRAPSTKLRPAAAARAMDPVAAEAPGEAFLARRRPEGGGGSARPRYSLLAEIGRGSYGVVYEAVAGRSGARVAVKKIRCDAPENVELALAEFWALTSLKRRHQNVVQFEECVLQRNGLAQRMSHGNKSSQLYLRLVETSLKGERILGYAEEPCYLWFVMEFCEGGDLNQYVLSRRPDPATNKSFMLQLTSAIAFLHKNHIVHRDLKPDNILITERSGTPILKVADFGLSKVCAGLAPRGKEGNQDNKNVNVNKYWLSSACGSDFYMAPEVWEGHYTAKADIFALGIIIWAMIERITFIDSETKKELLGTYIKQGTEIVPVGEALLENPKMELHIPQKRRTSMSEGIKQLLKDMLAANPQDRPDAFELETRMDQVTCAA
# Procedure, shortened: as §1
# CLK2(h) = biological target: T8, CLK2(h) (Homo sapiens, UniProt P49760); conditions: read-out: Inhibition(%) @ 1 µM RK-019
# T8 construct: purchased Eurofins Discovery Services (KinaseProfiler)
# Procedure, shortened: as §1
# Cdc7/cyclinB1(h) = biological target: T9, Cdc7/cyclinB1(h) (Homo sapiens, UniProt O00311); conditions: read-out: Inhibition(%) @ 1 µM RK-019
# T9 construct: purchased Eurofins Discovery Services (KinaseProfiler)
# Procedure, shortened: as §1
# DDR2(h) = biological target: T10, DDR2(h) (Homo sapiens, UniProt Q16832); conditions: read-out: Inhibition(%) @ 1 µM RK-019
# T10 construct: purchased Eurofins Discovery Services (KinaseProfiler)
# Procedure, shortened: as §1
# DYRK3(h) = biological target: T11, DYRK3(h) (Homo sapiens, UniProt O43781); conditions: read-out: Inhibition(%) @ 1 µM RK-019
# T11 construct: purchased Eurofins Discovery Services (KinaseProfiler)
# Procedure, shortened: as §1
# GRK1(h) = biological target: T12, GRK1(h) (Homo sapiens, UniProt Q15835); conditions: read-out: Inhibition(%) @ 1 µM RK-019
# T12 construct: purchased Eurofins Discovery Services (KinaseProfiler)
# T12 sequence (Q15835 whole entry): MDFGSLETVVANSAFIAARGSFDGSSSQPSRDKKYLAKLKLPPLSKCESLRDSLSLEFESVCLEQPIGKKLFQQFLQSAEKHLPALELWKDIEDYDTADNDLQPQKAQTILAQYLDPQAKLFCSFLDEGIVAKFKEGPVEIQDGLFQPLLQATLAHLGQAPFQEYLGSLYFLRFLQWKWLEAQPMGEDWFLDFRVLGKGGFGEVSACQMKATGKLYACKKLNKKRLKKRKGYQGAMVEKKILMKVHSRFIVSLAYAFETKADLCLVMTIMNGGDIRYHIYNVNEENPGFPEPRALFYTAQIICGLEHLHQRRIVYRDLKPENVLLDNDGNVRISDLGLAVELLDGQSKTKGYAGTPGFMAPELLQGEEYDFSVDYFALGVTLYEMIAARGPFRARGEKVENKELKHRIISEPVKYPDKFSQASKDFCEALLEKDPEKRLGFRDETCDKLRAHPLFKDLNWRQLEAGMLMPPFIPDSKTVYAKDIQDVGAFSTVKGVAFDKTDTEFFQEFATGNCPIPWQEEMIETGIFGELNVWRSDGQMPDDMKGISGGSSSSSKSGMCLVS
# Procedure, shortened: as §1
# GRK6(h) = biological target: T13, GRK6(h) (Homo sapiens, UniProt P43250); conditions: read-out: Inhibition(%) @ 1 µM RK-019
# T13 construct: purchased Eurofins Discovery Services (KinaseProfiler)
# Procedure, shortened: as §1
# GRK7(h) = biological target: T14, GRK7(h) (Homo sapiens, UniProt Q8WTQ7); conditions: read-out: Inhibition(%) @ 1 µM RK-019
# T14 construct: purchased Eurofins Discovery Services (KinaseProfiler)
# Procedure, shortened: as §1
# IR(h) = biological target: T15, IR(h) (Homo sapiens, UniProt P06213); conditions: read-out: Inhibition(%) @ 1 µM RK-019
# T15 construct: purchased Eurofins Discovery Services (KinaseProfiler)
# Procedure, shortened: as §1
# JAK2(h) = biological target: T16, JAK2(h) (Homo sapiens, UniProt O60674); conditions: read-out: Inhibition(%) @ 1 µM RK-019
# T16 construct: purchased Eurofins Discovery Services (KinaseProfiler)
# Procedure, shortened: as §1
# LIMK2(h) = biological target: T17, LIMK2(h) (Homo sapiens, UniProt P53671); conditions: read-out: Inhibition(%) @ 1 µM RK-019
# T17 construct: purchased Eurofins Discovery Services (KinaseProfiler)
# Procedure, shortened: as §1
# Lyn(h) = biological target: T18, Lyn(h) (Homo sapiens, UniProt P07948)
# T18 construct: purchased Eurofins Discovery Services (KinaseProfiler)
# T18 sequence (P07948 whole entry): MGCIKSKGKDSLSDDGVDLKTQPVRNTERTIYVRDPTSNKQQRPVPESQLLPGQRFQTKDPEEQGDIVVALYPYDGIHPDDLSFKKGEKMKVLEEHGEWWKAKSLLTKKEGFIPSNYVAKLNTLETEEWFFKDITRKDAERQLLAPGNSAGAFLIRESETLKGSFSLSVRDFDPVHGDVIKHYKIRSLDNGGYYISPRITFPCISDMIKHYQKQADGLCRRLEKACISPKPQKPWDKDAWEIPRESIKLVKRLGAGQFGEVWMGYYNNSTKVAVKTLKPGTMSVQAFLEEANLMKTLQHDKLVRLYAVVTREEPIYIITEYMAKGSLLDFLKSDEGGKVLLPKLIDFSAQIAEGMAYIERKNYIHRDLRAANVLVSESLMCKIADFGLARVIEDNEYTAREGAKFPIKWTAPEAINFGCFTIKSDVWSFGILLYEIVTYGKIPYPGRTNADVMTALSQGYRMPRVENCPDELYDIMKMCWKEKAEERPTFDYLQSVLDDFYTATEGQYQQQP
# Procedure, shortened: as §1
# MAP4K5(h) = biological target: T19, MAP4K5(h) (Homo sapiens, UniProt Q9Y4K4); conditions: read-out: Inhibition(%) @ 1 µM RK-019
# T19 construct: purchased Eurofins Discovery Services (KinaseProfiler)
# T19 sequence (Q9Y4K4 whole entry): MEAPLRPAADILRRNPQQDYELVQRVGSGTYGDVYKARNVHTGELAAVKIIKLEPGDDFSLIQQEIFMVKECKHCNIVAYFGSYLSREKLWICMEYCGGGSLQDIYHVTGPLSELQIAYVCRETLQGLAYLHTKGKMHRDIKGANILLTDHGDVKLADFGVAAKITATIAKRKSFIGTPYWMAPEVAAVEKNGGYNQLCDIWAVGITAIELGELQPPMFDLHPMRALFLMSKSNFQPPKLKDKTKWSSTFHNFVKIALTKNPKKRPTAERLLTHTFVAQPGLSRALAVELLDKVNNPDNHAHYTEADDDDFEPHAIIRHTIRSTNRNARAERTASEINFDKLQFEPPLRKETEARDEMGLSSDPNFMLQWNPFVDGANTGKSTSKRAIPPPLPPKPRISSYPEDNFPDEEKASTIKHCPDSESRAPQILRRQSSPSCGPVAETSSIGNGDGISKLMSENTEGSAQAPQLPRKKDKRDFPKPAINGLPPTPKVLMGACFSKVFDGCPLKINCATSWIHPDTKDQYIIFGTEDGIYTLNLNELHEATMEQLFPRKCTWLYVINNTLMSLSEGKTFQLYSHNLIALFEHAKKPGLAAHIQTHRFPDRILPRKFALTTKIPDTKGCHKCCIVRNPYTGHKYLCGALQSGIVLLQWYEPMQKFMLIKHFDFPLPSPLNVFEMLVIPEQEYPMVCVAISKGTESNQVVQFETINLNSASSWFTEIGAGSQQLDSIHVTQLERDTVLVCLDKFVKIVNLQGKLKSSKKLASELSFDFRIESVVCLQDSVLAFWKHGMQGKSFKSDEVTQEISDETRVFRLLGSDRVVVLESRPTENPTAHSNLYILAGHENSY
# Procedure, shortened: as §1
# MLK3(h) = biological target: T20, MLK3(h) (Homo sapiens, UniProt Q16584); conditions: read-out: Inhibition(%) @ 1 µM RK-019
# T20 construct: purchased Eurofins Discovery Services (KinaseProfiler)
# T20 sequence (Q16584 whole entry): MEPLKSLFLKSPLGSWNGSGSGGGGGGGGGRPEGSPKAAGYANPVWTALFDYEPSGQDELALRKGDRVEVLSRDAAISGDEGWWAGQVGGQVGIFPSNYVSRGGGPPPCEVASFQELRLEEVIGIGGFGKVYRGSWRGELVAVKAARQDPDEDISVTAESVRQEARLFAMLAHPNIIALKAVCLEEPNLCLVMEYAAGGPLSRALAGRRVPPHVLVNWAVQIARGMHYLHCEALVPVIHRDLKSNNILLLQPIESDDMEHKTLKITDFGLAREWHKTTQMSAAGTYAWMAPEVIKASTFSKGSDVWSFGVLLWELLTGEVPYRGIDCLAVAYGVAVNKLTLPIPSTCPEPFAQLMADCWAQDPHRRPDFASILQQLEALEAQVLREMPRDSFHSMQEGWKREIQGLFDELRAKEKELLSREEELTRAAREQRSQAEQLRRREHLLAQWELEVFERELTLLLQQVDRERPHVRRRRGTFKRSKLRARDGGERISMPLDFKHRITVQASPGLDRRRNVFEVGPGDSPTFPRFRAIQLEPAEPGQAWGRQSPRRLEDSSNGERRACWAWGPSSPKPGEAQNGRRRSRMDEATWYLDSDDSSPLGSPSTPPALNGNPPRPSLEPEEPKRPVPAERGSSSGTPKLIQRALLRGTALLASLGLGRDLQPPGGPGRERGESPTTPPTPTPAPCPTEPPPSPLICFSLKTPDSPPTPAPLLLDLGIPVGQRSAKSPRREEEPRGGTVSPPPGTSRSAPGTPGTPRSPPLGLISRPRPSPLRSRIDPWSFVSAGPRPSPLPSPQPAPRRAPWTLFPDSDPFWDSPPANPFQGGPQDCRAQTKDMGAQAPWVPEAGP
# Procedure, shortened: as §1
# MRCKγ(h) = biological target: T21, MRCKγ(h) (Homo sapiens, UniProt Q6DT37); conditions: read-out: Inhibition(%) @ 1 µM RK-019
# T21 construct: purchased Eurofins Discovery Services (KinaseProfiler)
# Procedure, shortened: as §1
# Met(M1268T)(h) = biological target: T22, Met(M1268T)(h) (Homo sapiens, UniProt P08581, M1250T); conditions: read-out: Inhibition(%) @ 1 µM RK-019
# T22 construct: purchased Eurofins Discovery Services (KinaseProfiler)
# Procedure, shortened: as §1
# Met(h) = biological target: T23, Met(h) (Homo sapiens, UniProt P08581); conditions: read-out: Inhibition(%) @ 1 µM RK-019
# T23 construct: purchased Eurofins Discovery Services (KinaseProfiler)
# Procedure, shortened: as §1
# NEK3(h) = biological target: T24, NEK3(h) (Homo sapiens, UniProt P51956); conditions: read-out: Inhibition(%) @ 1 µM RK-019
# T24 construct: purchased Eurofins Discovery Services (KinaseProfiler)
# Procedure, shortened: as §1
# PASK(h) = biological target: T25, PASK(h) (Homo sapiens, UniProt Q96RG2); conditions: read-out: Inhibition(%) @ 1 µM RK-019
# T25 construct: purchased Eurofins Discovery Services (KinaseProfiler)
# Procedure, shortened: as §1
# [1] = biological target: T26, PI3 Kinase (p110a(H1047R)/p85a)(m) (Mus musculus, UniProt P42337, H1047R); conditions: read-out: Inhibition(%) @ 1 µM RK-019
# T26 construct: purchased Eurofins Discovery Services (KinaseProfiler)
# [2] = biological target: T27, PI3 Kinase (p110a/p85a)(m) (Mus musculus, UniProt P42337); conditions: read-out: Inhibition(%) @ 1 µM RK-019
# T27 construct: purchased Eurofins Discovery Services (KinaseProfiler)
# [3] = biological target: T28, PI3 Kinase (p110b/p85b)(m) (Mus musculus, UniProt Q8BTI9); conditions: read-out: Inhibition(%) @ 1 µM RK-019
# T28 construct: purchased Eurofins Discovery Services (KinaseProfiler)
# PKBβ(h) = biological target: T29, PKBβ(h) (Homo sapiens, UniProt P31751); conditions: read-out: Inhibition(%) @ 1 µM RK-019
# T29 construct: purchased Eurofins Discovery Services (KinaseProfiler)
# Procedure, shortened: as §1
# SBK1(h) = biological target: T30, SBK1(h) (Homo sapiens, UniProt Q52WX2); conditions: read-out: Inhibition(%) @ 1 µM RK-019
# T30 construct: purchased Eurofins Discovery Services (KinaseProfiler)
# Procedure, shortened: as §1
# SRMS(h) = biological target: T31, SRMS(h) (Homo sapiens, UniProt Q9H3Y6); conditions: read-out: Inhibition(%) @ 1 µM RK-019
# T31 construct: purchased Eurofins Discovery Services (KinaseProfiler)
# Procedure, shortened: as §1
# STK32A(h) = biological target: T32, STK32A(h) (Homo sapiens, UniProt Q8WU08); conditions: read-out: Inhibition(%) @ 1 µM RK-019
# T32 construct: purchased Eurofins Discovery Services (KinaseProfiler)
# Procedure, shortened: as §1
# Syk(h) = biological target: T33, Syk(h) (Homo sapiens, UniProt P43405); conditions: read-out: Inhibition(%) @ 1 µM RK-019
# T33 construct: purchased Eurofins Discovery Services (KinaseProfiler)
# Procedure, shortened: as §1
# TrkC(h) = biological target: T34, TrkC(h) (Homo sapiens, UniProt Q16288); conditions: read-out: Inhibition(%) @ 1 µM RK-019
# T34 construct: purchased Eurofins Discovery Services (KinaseProfiler)
# Procedure, shortened: as §1
# Wee1(h) = biological target: T35, Wee1(h) (Homo sapiens, UniProt P30291); conditions: read-out: Inhibition(%) @ 1 µM RK-019
# T35 construct: purchased Eurofins Discovery Services (KinaseProfiler)
# Procedure, shortened: as §1
# Yes(h) = biological target: T36, Yes(h) (Homo sapiens, UniProt P07947); conditions: read-out: Inhibition(%) @ 1 µM RK-019
# T36 construct: purchased Eurofins Discovery Services (KinaseProfiler)
# T36 sequence (P07947 whole entry): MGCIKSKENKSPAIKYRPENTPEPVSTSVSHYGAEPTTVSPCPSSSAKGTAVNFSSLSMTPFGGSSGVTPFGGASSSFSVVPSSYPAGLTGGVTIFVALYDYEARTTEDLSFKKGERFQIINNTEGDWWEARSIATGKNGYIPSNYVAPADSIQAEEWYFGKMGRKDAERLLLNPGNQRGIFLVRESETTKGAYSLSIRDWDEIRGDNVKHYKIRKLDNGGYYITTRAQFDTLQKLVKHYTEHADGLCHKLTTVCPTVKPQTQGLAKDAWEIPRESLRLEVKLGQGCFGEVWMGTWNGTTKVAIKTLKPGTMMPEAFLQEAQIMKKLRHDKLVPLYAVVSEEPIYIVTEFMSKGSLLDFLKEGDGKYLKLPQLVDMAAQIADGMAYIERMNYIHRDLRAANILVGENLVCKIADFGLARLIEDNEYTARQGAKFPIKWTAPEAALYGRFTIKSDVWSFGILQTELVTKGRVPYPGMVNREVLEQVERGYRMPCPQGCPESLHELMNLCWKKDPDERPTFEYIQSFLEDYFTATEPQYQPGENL
# Procedure, shortened: as §1
compound,measurement,setting,value
"COc1cc(OC)cc(N(CCN[C@H](C)CO)c2ccc3ncc(-c4cnn(C)c4)c(=O)n3c2)c1 [RK-019, (R)-7-((3,5-dimethoxyphenyl) (2-((1-hydroxypropan-2-yl)amino)ethyl)amino)-3-(1-methyl-1H-pyrazol-4-yl)-4H-pyrido [1,2-a]pyrimidin-4-one]",activity at 1 µM,Abl (M351T)(h),34%
same,activity at 1 µM,Abl (Q252H) (h),46%
same,activity at 1 µM,Axl(h),116%
same,activity at 1 µM,CDK17/cyclinY(h),104%
same,activity at 1 µM,CDK4/cyclinD3(h),101%
same,activity at 1 µM,CHK2(h),96%
same,activity at 1 µM,CLIK1(h),102%
same,activity at 1 µM,CLK2(h),107%
same,activity at 1 µM,Cdc7/cyclinB1(h),87%
same,activity at 1 µM,DDR2(h),109%
same,activity at 1 µM,DYRK3(h),88%
same,activity at 1 µM,GRK1(h),94%
same,activity at 1 µM,GRK6(h),114%
same,activity at 1 µM,GRK7(h),108%
same,activity at 1 µM,IR(h),118%
same,activity at 1 µM,JAK2(h),106%
same,activity at 1 µM,LIMK2(h),98%
same,inhibition at 1 µM,"Lyn(h); LYN, 1 µM, read-out: inhibition (hit in panel)",> 90%
same,activity at 1 µM,"Lyn(h); Lyn(h), read-out: Inhibition(%) @ 1 µM RK-019",6%
same,activity at 1 µM,MAP4K5(h),103%
same,activity at 1 µM,MLK3(h),98%
same,activity at 1 µM,MRCKγ(h),94%
same,activity at 1 µM,Met(M1268T)(h),71%
same,activity at 1 µM,Met(h),97%
same,activity at 1 µM,NEK3(h),87%
same,activity at 1 µM,PASK(h),96%
same,activity at 1 µM,[1],100%
same,activity at 1 µM,[2],101%
same,activity at 1 µM,[3],99%
same,activity at 1 µM,PKBβ(h),84%
same,activity at 1 µM,SBK1(h),96%
same,activity at 1 µM,SRMS(h),123%
same,activity at 1 µM,STK32A(h),86%
same,activity at 1 µM,Syk(h),116%
same,activity at 1 µM,TrkC(h),86%
same,activity at 1 µM,Wee1(h),92%
same,activity at 1 µM,Yes(h),29%
